Like-named read-outs stand apart in the source and are kept apart here.
Experiments:
SW620 tumor organoids = assay: cells; details: Homo sapiens, SW-620, 72 h, read-out: IC50 5FU, SW620 tumor organoids, 72 h
Colo678 cells = assay: Colo678 cell viability, combination with chemotherapy; type: cell-based; details: for IC50: Homo sapiens, COLO-678, Colo678 cells, read-out: IC50 5-FU
SUM149PT tumor organoids = assay: Tumor organoid cytotoxicity (CellTiter Glo 3D), SUM149PT; type: cell-based; details: for IC50: Homo sapiens; for increase in potency of the chemotherapy: SUM149PT BRCA1 mutant tumor organoids, + 1.9 μM Compound 6; for improvement of IC50 potency: combined with Compound 6; for mean synergy score (Bliss): SUM149PT cells
Description: Tumor organoid culture—Cell lines were cultured as tumor organoids by seeding 2,000 to 5,000 cells/well into uncoated 96 well U-bottom Ultra Low Attachment Microplates (Corning) using their corresponding medium.
Luminescence was recorded using the EnVision plate reader (PerkinElmer) and values normalized to the controls using GraphPad Prism.

MiaPaca2 cells = assay: MiaPaca2 cell viability, combination with chemotherapy; type: cell-based; details: for IC50: Homo sapiens, MIA PaCa-2, MiaPaca2 cells, read-out: IC50 5-FU; for calculated mean synergy score: MiaPaca2 cells
Source text: The cell viability assays and Bliss synergy analyses are as described above in Examples 1-9 and 11-12.

caspase-3 = assay: Caspase-3 cleavage activation; type: cell-based; details: for caspase-3 cleavage activation: single agent
Description: AIF in the cytoplasm and nucleus was examined. […] Finally, caspase-3 cleavage activation, an apoptosis marker, was measured (FIG. 16D).
(§1) CHD1Li-mediated PAR translocation to the cytoplasm activates PARthanatos as a cell death mechanism. Parthanatos is a form a programmed cell death different from apoptosis and known to be mediated by PARP1 overactivation. The unique events occurring during parthanatos are: PARP1 rapid activation, accumulation of PAR and nuclear translocation of apoptosis inducing factor (AIF). Without being bound by any particular theory, accumulation of PAR in the cytoplasm caused by CHD1Li can also mediate parthanatos. To better understand the link between PAR translocation to the cytoplasm and cell death, immunofluorescence to measure the activation of caspase-3 and the subcellular localization of AIF after treatment with SOC drugs and Compound 6 in SUM49PT cells was used. […] Without being bound by any particular theory, this might be caused by the mitochondrial outer membrane permeabilization, which triggers release of mitochondrial proteins like AIF or cytochrome c, activating caspase-3 by its cleavage and leading to apoptosis. […] Moreover, when combining CHD1L inhibition with SOC drugs, the cell death mechanism shifts from apoptosis to parthanatos, evidenced by a significant increase in AIF nuclear translocation and decrease in activation of caspase-3 (FIG. 25D-E).

HCC1937 tumor organoids = assay: Tumor organoid cytotoxicity, HCC1937; type: cell-based; details: Homo sapiens; HCC1937 (BRCA1 mutant HR-deficient); read-out: IC50, tumor organoid viability, single agent
Description: Tumor organoid culture—Cell lines were cultured as tumor organoids by seeding 2,000 to 5,000 cells/well into uncoated 96 well U-bottom Ultra Low Attachment Microplates (Corning) using their corresponding medium. Cell aggregation was then promoted by centrifugation of the plates for 15 min at 1,000 rpm followed by the addition of Matrigel (Corning) to a 2-5% final concentration. Tumor organoids were maintained under standard cell culture conditions for 72 h prior to drug treatment.
Organoids were then transferred to a white solid bottom 96 well plate and incubated with an equal volume of CellTiter Glo 3D reagent (Promega) for 45 min on a shaker at 400 rpm. Luminescence was recorded using the EnVision plate reader (PerkinElmer) and values normalized to the controls using GraphPad Prism.

AIF in SUM149PT cells = assay: AIF immunofluorescence in SUM149PT (SUM149) cells; type: cell-based
Source text: as §1
The ability of Compounds 12, 15 and 16 to localize AIF was tested in SUM149 (breast cancer) and MDA-MB-231 (TNBC) cell lines. A comparison of the relative distribution of AIF in nuclei (a) versus cytoplasm (b) in SUM149 cells and nuclei (c) versus cytoplasm (d) in MDA-MB-231 cells in the presence of 4 μM Compounds 12, 15 and 16 are shown in FIG. 28. […] Similarly, AIF concentration in the cytoplasm of MDA-MB-231 cells decreased by about 0.5 after administration with Compound 15. After treatment with Compound 16, the relative concentration of AIF in the nuclei of SUM149 cells increased by about 0.5-fold, and the concentration of AIF in the cytoplasm decreased by about 0.4-fold. In MDA-MB-231 cells, the relative concentration of AIF in the cytoplasm decreased by about 0.5-fold, while the concentration of AIF increased in the nuclei by about 0.1-fold.

[1] = SUM149PT cells, single agent, 18 h

SMILES: O=c1[nH]cc(F)c(=O)[nH]1 [Compound 5-FU, 5-fluorouracil]
- IC50 (SW620 tumor organoids; 5FU alone): > 200 µM
- IC50 (SW620 tumor organoids; + Compound 6.11 2.75 μM): 2.88 µM
- IC50 (Colo678 cells; Compound 6.11 0 μM): 3430 µM
- IC50 (Colo678 cells; Compound 6.11 3 μM): 717 µM
- IC50 (Colo678 cells; Compound 6.11 3.25 μM): 99.4 µM
- IC50 (Colo678 cells; Compound 6.11 3.5 μM): 58.5 µM
- IC50 (Colo678 cells; Compound 12 0 μM): 75100 µM
- IC50 (Colo678 cells; Compound 12 1 μM): 549 µM
- IC50 (Colo678 cells; Compound 12 1.5 μM): 392 µM
- IC50 (Colo678 cells; Compound 12 2 μM): 205 µM
- IC50 (Colo678 cells; Compound 13 0 μM): 7520 µM
- IC50 (Colo678 cells; Compound 13 3.5 μM): 544 µM
- IC50 (Colo678 cells; Compound 13 3.75 μM): 432 µM
- IC50 (Colo678 cells; Compound 13 4 μM): 246 µM
- IC50 (Colo678 cells; Compound 14 2.5 μM): 149 µM
- IC50 (Colo678 cells; Compound 14 2.75 μM): 74.7 µM
- IC50 (Colo678 cells; Compound 14 3 μM): 50.4 µM
- IC50 (Colo678 cells; Compound 20 0 μM): 14800 µM
- IC50 (Colo678 cells; Compound 20 3.5 μM): 170 µM
- IC50 (Colo678 cells; Compound 20 4 μM): 60 µM
- IC50 (Colo678 cells; Compound 20 4.5 μM): 34.5 µM
- IC50 5-FU (μM) in SUM149PT (SUM149PT tumor organoids; Compound 13 0 μM): Resistant
- IC50 (SUM149PT tumor organoids; SUM149PT, Compound 13 2 μM, read-out: IC50 5-FU (μM) in SUM149PT): 23.8 µM
- IC50 (SUM149PT tumor organoids; SUM149PT, Compound 13 2.25 μM, read-out: IC50 5-FU (μM) in SUM149PT): 23 µM
- IC50 (SUM149PT tumor organoids; SUM149PT, Compound 13 2.5 μM, read-out: IC50 5-FU (μM) in SUM149PT): 14.4 µM
- increase in potency of the chemotherapy (SUM149PT tumor organoids): 10 fold
- improvement of IC50 potency (SUM149PT tumor organoids; SUM149PT tumor organoids): 10 fold
- IC50 (MiaPaca2 cells; Compound 6.11 0 μM): 238 µM
- IC50 (MiaPaca2 cells; Compound 6.11 4 μM): 74.4 µM
- IC50 (MiaPaca2 cells; Compound 6.11 4.25 μM): 68.7 µM
- IC50 (MiaPaca2 cells; Compound 6.11 4.5 μM): 38.3 µM
- IC50 (MiaPaca2 cells; Compound 7 0 μM): 68.2 µM
- IC50 (MiaPaca2 cells; Compound 7 7 μM): 61.8 µM
- IC50 (MiaPaca2 cells; Compound 7 8 μM): 56.7 µM
- IC50 (MiaPaca2 cells; Compound 7 9 μM): 46.7 µM
- IC50 (MiaPaca2 cells; Compound 8 0 μM): 55.6 µM
- IC50 (MiaPaca2 cells; Compound 8 2 μM): 66.2 µM
- IC50 (MiaPaca2 cells; Compound 8 2.25 μM): 60.4 µM
- IC50 (MiaPaca2 cells; Compound 8 2.5 μM): 53.8 µM
- IC50 (MiaPaca2 cells; Compound 12 0 μM): 69.7 µM
- IC50 (MiaPaca2 cells; Compound 12 3.75 μM): 32 µM
- IC50 (MiaPaca2 cells; Compound 12 4 μM): 16.3 µM
- IC50 (MiaPaca2 cells; Compound 12 4.25 μM): 15.9 µM
- IC50 (MiaPaca2 cells; Compound 13 0 μM): 57.2 µM
- IC50 (MiaPaca2 cells; Compound 13 5 μM): 60.9 µM
- IC50 (MiaPaca2 cells; Compound 13 6 μM): 58.5 µM
- IC50 (MiaPaca2 cells; Compound 13 […]): 50.7 µM

SMILES: Cc1cc(Nc2ccc(NC(=O)Cc3cc(Br)cs3)cc2)nc(N2CCCC2)n1 [Compound 6.11, 2-(4-bromothiophen-2-yl)-N-(4-((6-methyl-2-(pyrrolidin-1-yl)pyrimidin-4-yl)amino)phenyl)acetamide]
- caspase-3 activation (caspase-3; Compound 6.11 combined with SN-38): enhanced caspase-3 activation
- caspase-3 cleavage activation (caspase-3): did not induce caspase-3 activation
- calculated mean synergy score (Colo678 cells; Colo678 cells, 72 h, combined with SN-38): about 41
- IC50 (HCC1937 tumor organoids): ~2.8 µM
- IC50 (SUM149PT tumor organoids; SUM149PT, read-out: IC50, tumor organoid viability, single agent, SUM149PT (BRCA1 mutant HR-deficient)): ~1.7 µM
- mean synergy score (Bliss) (SUM149PT tumor organoids; combined with 5-FU): about 60
- mean synergy score (Bliss) (SUM149PT tumor organoids; combined with Olaparib): about 58
- mean synergy score (Bliss) (SUM149PT tumor organoids; combined with docetaxel): about 56
- calculated mean synergy score (MiaPaca2 cells; combined with 5-FU): about 42
- calculated mean synergy score (MiaPaca2 cells; combined with SN-38): about 29
- AIF nuclear translocation in combination (AIF in SUM149PT cells; Compound 6.11 combined with doxorubicin or irinotecan/SN-38): resulted in AIF nuclear translocation
- cytoplasmic AIF (AIF in SUM149PT cells; [1]): did not affect cytoplasmic AIF
- nuclear AIF (AIF in SUM149PT cells; [1]): increased nuclear AIF

SMILES: COc1cccc2c1C(=O)c1c(O)c3c(c(O)c1C2=O)C[C@@](O)(C(=O)CO)C[C@@H]3O[C@H]1C[C@H](N)[C@H](O)[C@H](C)O1 [doxorubicin]
- caspase-3 cleavage activation (caspase-3): activation of apoptosis by cleavage of caspase-3
- IC50 (SUM149PT tumor organoids; SUM149PT, Compound 13 0 μM, read-out: IC50 doxorubicin (μM) in SUM149PT): 0.505 µM
- IC50 (SUM149PT tumor organoids; SUM149PT, Compound 13 2 μM, read-out: IC50 doxorubicin (μM) in SUM149PT): 0.0944 µM
- IC50 (SUM149PT tumor organoids; SUM149PT, Compound 13 2.25 μM, read-out: IC50 doxorubicin (μM) in SUM149PT): 0.016 µM
- IC50 (SUM149PT tumor organoids; SUM149PT, Compound 13 2.5 μM, read-out: IC50 doxorubicin (μM) in SUM149PT): 0.279 µM
- IC50 (SUM149PT tumor organoids; SUM149PT tumor organoids, 72 h, + non-lethal doses of Compound 6, read-out: IC50 of the drug in combination): 0.28 ± 0.01 µM
- increase in potency of the chemotherapy (SUM149PT tumor organoids): 20 fold
- improvement of IC50 potency (SUM149PT tumor organoids; SUM149PT tumor organoids): 2 fold
- nuclear AIF (AIF in SUM149PT cells; [1]): some increase of AIF in the nucleus
